Source: patent US20200317741A1, “COMPOSITION FOR PREVENTING HAIR LOSS OR PROMOTING HAIR GROWTH” (BR PHARM CO., LTD., priority 2019, published 2020)
Ends that are not written are not given here.

Columns and labels:
Assay type in all cases: cell-based
[1] = test system: β-catenin; test: Expression analysis of β-catenin in dermal papilla cells (western blot); details: FIG. 6 legend
Protocol: (§1) As in Example 1, the dermal papilla cells were stabilized for at least 4 hours after seeding in 6 well plates at 4×10^4 cells/well. Thereafter, the medium was removed, and the cell was treated with PDRN, Wnt-1 peptide and Wnt-2 peptide at various concentrations alone or in combination and incubated for 72 hours in an incubator at 37° C., 5% CO2.
(§2) Then, the cells were lysed by adding lysis buffer (1 M Tris-HCl, 0.5 M EDTA, 1% Triton X-100, 100 mM PMSF) to each cell, and the protein was quantified using a BCA (Bicinconinic acid) kit. 20 μg of protein was loaded on 10% SDS-polyacrylamide and electrophoresed at 125 V. The protein separated by electrophoresis was transferred to PVDF membrane (Immobilon-P transfermembrane) by electrophoresis at 50 mA for 120 minutes using transfer buffer (20% methanol, 25 mM Tris-HCl, 192 mM glycine).
(§3) To prevent nonspecific binding, the membranes were blocked with 5% non-fat skim milk and then the reaction was carried out at 4° C. for 12 hours with a primary antibody (β-catenin, c-myc, Santa Cruz Biotechnology, Inc.) diluted to 1:1000 in TTBS solution ([…], pH 7.4; 20 mM NaCl; 0.05% Tween-20). Thereafter, the membrane was washed three times with TTBS and reacted with a secondary antibody (HRP-conjugated anti-rabbit IgG) diluted to 1:2000 at room temperature for 2 hours. The membrane was then washed three times with TTBS and then protein expression was confirmed on the X-ray film using an ECL diagnostic kit.

[2] = test system: dermal papilla cells; test: Dermal papilla cell growth by Wnt-derived peptides (microscopy); details: 100 ng/mL among 10-10000 ng/mL, 72 hours (FIG. 3C)
Protocol: (§4) To confirm the shape change and proliferation rate of cells, keratinocytes T0020001 (AddexBio), fibroblasts (ATCC), and dermal papilla cells were cultured in DMEM medium containing 10% fetal bovine serum and 1% penicillin/streptomycin.
(§5) After the cells were recovered by treating the cultured cells with trypsin/EDTA and the number of cells was measured using a hematocytometer. The cells were seeded in 96 well plates at 3×10^3 cells/200 μL/well and stabilized for at least 4 hours.
(§6) Thereafter, the medium was removed, diluted with DEME medium so as to be the Wnt peptides (Wnt-1, Wnt-2) of 10, 100, 1000, and 10000 ng/mL and then treated with cells and cultured for 72 hours in an incubator at 37° C., 5% CO2. The cells were then observed by a microscope to analyze the morphology and growth rate of the cells.

[3] = test system: keratinocytes; test: Keratinocyte growth by Wnt-derived peptides (microscopy); details: 72 hours (FIG. 3A)
Protocol: as §4, §5, §6

[4] = test system: c-myc; test: Expression analysis of c-myc in dermal papilla cells (western blot); details: for activity of c-myc: FIG. 7 legend
Protocol: as §1, §2, §3

[5] = test system: fibroblasts; test: Fibroblast growth by Wnt-derived peptides (microscopy); details: 10-10000 ng/mL, 72 hours, compared to the control group (FIG. 3B)
Protocol: as §4, §5, §6

[6] = test system: dermal papilla cells; test: Dermal papilla cell growth rate by cell counting (PDRN alone or with Wnt-1+Wnt-2); details: PDRN 50, 100, 200 μg/mL, 72 hours, relative to control without PDRN (FIG. 2)
Protocol: Dermal papilla cells (Promocells) were cultured in an incubator at 37° C., 5% CO2 using DMEM medium (Dulbeco's Modified Eagle's Medium) containing 10% fetal bovine serum (FBS) and 1% penicillin/streptomycin.
Cells were recovered by treating the cultured cells with trypsin/EDTA, and then the number of cells was measured using a hemacytometer. The cells were seeded in 96 well plates at 3×10^3 cells/200 μL/well and then stabilized for at least 4 hours. Thereafter, the medium was removed, diluted in DEME medium so as to be the polydeoxyribonucleotide (PDRN) of 50, 100, 200 μg/mL concentration and then treated with cells and cultured for 72 hours in an incubator at 37° C., 5% CO2.
Subsequently, the cells were recovered by treating them with trypsin/EDTA and then the number of cells was measured using a hematocytometer. Cell growth rate was analyzed by calculating percentages based on the control group without the treatment with PDRN.
As in Example 1, the dermal papilla cells were seeded in 96 well plates at 3×10^3 cells/200 μL/well and stabilized for at least 4 hours. Thereafter, the medium was removed, diluted with DEME medium so as to be polydeoxyribonucleotide (PDRN, BR Pharm Co. Ltd.) of 25, 50, 100 μg/mL and Wnt-1 peptide+Wnt-2 peptide of 0.1 μg/mL (each 0.05 μg/mL) and then treated with cells and cultured for 72 hours in an incubator at 37° C., 5% CO2.

Substance | activity of β-catenin [1] | cell growth rate (dermal papilla cells) at 100 ng/mL [2] | growth rate of the cells (keratinocytes) ([3]; 10, 100, 1000, 10000 ng/mL) | activity of c-myc [4] | cell growth (fibroblasts) compared to the control group [5] | cell growth rate (keratinocytes) at 100 ng/mL ([3]; 100 ng/mL among 10-10000 ng/mL) | expression of c-myc with PDRN treatment concentration ([4]; 72 hours (FIG. 7)) | growth rate of the dermal papilla cells [6]
MCCGRGYDQF (Ac-MCCGRGYDQF; cysteine pairing not given here) [Wnt-1] | effect of increasing the activity of β-catenin | highest cell growth rate | growth rate of the cells was increased | effect of increasing the activity of c-myc | – | – | – | –
MCCGRGYNYH (Ac-MCCGRGYNYH; cysteine pairing not given here) [Wnt-2] | effect of increasing the activity of β-catenin | highest cell growth rate | – | effect of increasing the activity of c-myc | no change was observed | highest cell growth rate | – | –
polydeoxyribonucleotide [PDRN] | effect of increasing the activity of β-catenin | – | – | – | – | – | increased as the treatment concentration of PDRN increased | increases as the PDRN treatment concentration increases
